The test deals with BDF1 mice, P388 leukemia ip, median survival T/C. Briefly: NCI In Vivo Anticancer Drug Screen. Data for tumor model P388 Leukemia (intraperitoneal) in B6D2F1 (BDF1) mice. The settings on record: endpoint: median survival time, higher = longer survival. A digest of the protocol: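 Transplantable tumour in mice; compound vs vehicle dosing; survival scored; ratio of treated to control reported.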

This is an account of results in PubChem BioAssay AID328 (DTP/NCI, 2004).

“And” between values parts separate entries of the source, which are not always exact repeats. Identical values can stand only once. Toxic doses and inconclusive results are not listed.

With `O=NN(CCCl)C(=O)N[C@@H]1CCCC[C@H]1NC(=O)N(CCCl)N=O`, the T/C is, setting by setting: (dose: 0.12 mg/kg/injection, schedule: Q04DX003 (ip), vehicle: Klucel (hydroxypropylcellulose) (HPC)) 120 % of control; (dose: 0.18 mg/kg/injection, schedule: Q01DX009 (ip), vehicle: Klucel (hydroxypropylcellulose) (HPC)) 100 % of control; (dose: 0.25 mg/kg/injection, schedule: Q04DX003 (ip), vehicle: Klucel (hydroxypropylcellulose) (HPC)) 100 % of control; (dose: 0.37 mg/kg/injection, schedule: Q01DX009 (ip), vehicle: Klucel (hydroxypropylcellulose) (HPC)) 88 % of control; (dose: 0.5 mg/kg/injection, schedule: Q04DX003 (ip), vehicle: Klucel (hydroxypropylcellulose) (HPC)) 108 % of control; (dose: 0.75 mg/kg/injection, schedule: Q01DX009 (ip), vehicle: Klucel (hydroxypropylcellulose) (HPC)) 88 % of control. Besides, the T/C is 150 % of control (dose: 1.0 mg/kg/injection, schedule: Q04DX003 (ip), vehicle: Klucel (hydroxypropylcellulose) (HPC)); 88 % of control (dose: 1.5 mg/kg/injection, schedule: Q01DX009 (ip), vehicle: Klucel (hydroxypropylcellulose) (HPC)); 113 % of control (dose: 2.0 mg/kg/injection, schedule: Q04DX003 (ip), vehicle: Klucel (hydroxypropylcellulose) (HPC)); 109 % of control (dose: 3.0 mg/kg/injection, schedule: Q04DX003 (ip), vehicle: Klucel (hydroxypropylcellulose) (HPC)); 191 % of control (dose: 4.5 mg/kg/injection, schedule: Q01DX009 (ip), vehicle: Klucel (hydroxypropylcellulose) (HPC)); 172 % of control (dose: 6.0 mg/kg/injection, schedule: Q01DX009 (ip), vehicle: Klucel (hydroxypropylcellulose) (HPC)). Also, the T/C reads like this: (dose: 6.0 mg/kg/injection, schedule: Q04DX003 (ip), vehicle: Klucel (hydroxypropylcellulose) (HPC)) 150 % of control and 162 % of control and 172 % of control; (dose: 7.0 mg/kg/injection, schedule: Q01DX009 (ip), vehicle: Klucel (hydroxypropylcellulose) (HPC)) 233 % of control; (dose: 9.0 mg/kg/injection, schedule: Q04DX003 (ip), vehicle: Klucel (hydroxypropylcellulose) (HPC)) 213 % of control; (dose: 11.0 mg/kg/injection, schedule: Q01DX009 (ip), vehicle: Klucel (hydroxypropylcellulose) (HPC)) 237 % of control and 250 % of control; (dose: 12.0 mg/kg/injection, schedule: Q01DX009 (ip), vehicle: Klucel (hydroxypropylcellulose) (HPC)) 250 % of control; (dose: 12.0 mg/kg/injection, schedule: Q04DX003 (ip), vehicle: Klucel (hydroxypropylcellulose) (HPC)) 159 % of control. In addition, the T/C is 155 % of control (dose: 12.5 mg/kg/injection, schedule: Q01DX009 (ip), vehicle: Klucel (hydroxypropylcellulose) (HPC)); 250 % of control and 204 % of control (dose: 13.0 mg/kg/injection, schedule: Q04DX003 (ip), vehicle: Klucel (hydroxypropylcellulose) (HPC)); 250 % of control (dose: 16.5 mg/kg/injection, schedule: Q01DX009 (ip), vehicle: Klucel (hydroxypropylcellulose) (HPC)); 260 % of control and 272 % of control (dose: 20.0 mg/kg/injection, schedule: Q04DX003 (ip), vehicle: Klucel (hydroxypropylcellulose) (HPC)); 272 % of control and 280 % of control (dose: 25.0 mg/kg/injection, schedule: Q01DX009 (ip), vehicle: Klucel (hydroxypropylcellulose) (HPC)); 250 % of control (dose: 25.0 mg/kg/injection, schedule: Q01DX009 (ip), vehicle: saline). Besides, the T/C is, setting by setting: (dose: 25.0 mg/kg/injection, schedule: Q04DX003 (ip), vehicle: Klucel (hydroxypropylcellulose) (HPC)) 222 % of control; (dose: 30.0 mg/kg/injection, schedule: Q04DX003 (ip), vehicle: Klucel (hydroxypropylcellulose) (HPC)) 250 % of control and 272 % of control and 300 % of control; (dose: 35.0 mg/kg/injection, schedule: Q01DX009 (ip), vehicle: saline) 91 % of control; (dose: 40.0 mg/kg/injection, schedule: Q04DX003 (ip), vehicle: Klucel (hydroxypropylcellulose) (HPC)) 300 % of control; (dose: 44.0 mg/kg/injection, schedule: Q04DX003 (ip), vehicle: Klucel (hydroxypropylcellulose) (HPC)) 250 % of control; (dose: 50.0 mg/kg/injection, schedule: Q04DX003 (ip), vehicle: Klucel (hydroxypropylcellulose) (HPC)) 272 % of control. The T/C is, setting by setting: (dose: 67.0 mg/kg/injection, schedule: Q04DX003 (ip), vehicle: Klucel (hydroxypropylcellulose) (HPC)) 241 % of control and 250 % of control and 300 % of control; (dose: 100.0 mg/kg/injection, schedule: Q04DX003 (ip), vehicle: Klucel (hydroxypropylcellulose) (HPC)) 260 % of control and 150 % of control and 195 % of control; (dose: 150.0 mg/kg/injection, schedule: Q04DX003 (ip), vehicle: Klucel (hydroxypropylcellulose) (HPC)) 95 % of control; (dose: 200.0 mg/kg/injection, schedule: Q04DX003 (ip), vehicle: Klucel (hydroxypropylcellulose) (HPC)) 86 % of control and 122 % of control.

On to `CN1c2c(nc(N)[nH]c2=O)NCC1CCNc1ccc(C(=O)NC(CCC(=O)O)C(=O)O)cc1` (stereo unspecified), for which the T/C reads like this: (dose: 6.25 mg/kg/injection, schedule: Q01DX009 (ip), vehicle: other) 100 % of control; (dose: 12.5 mg/kg/injection, schedule: Q01DX009 (ip), vehicle: other) 100 % of control; (dose: 25.0 mg/kg/injection, schedule: Q01DX009 (ip), vehicle: other) 109 % of control; (dose: 50.0 mg/kg/injection, schedule: Q01DX009 (ip), vehicle: other) 109 % of control; (dose: 50.0 mg/kg/injection, schedule: Q01DX009 (ip), vehicle: saline) 104 % of control; (dose: 100.0 mg/kg/injection, schedule: Q01DX009 (ip), vehicle: saline) 112 % of control. Also, the T/C was 109 % of control (dose: 100.0 mg/kg/injection, schedule: Q04DX003 (ip), vehicle: saline); 118 % of control (dose: 200.0 mg/kg/injection, schedule: Q01DX009 (ip), vehicle: other); 122 % of control (dose: 200.0 mg/kg/injection, schedule: Q01DX009 (ip), vehicle: saline); 109 % of control (dose: 200.0 mg/kg/injection, schedule: Q04DX003 (ip), vehicle: saline); 90 % of control (dose: 400.0 mg/kg/injection, schedule: Q04DX003 (ip), vehicle: saline).

Regarding `NC(N)=Nc1ccc(F)cc1`, the T/C runs as follows: (dose: 50.0 mg/kg/injection, schedule: Q01DX009 (ip), vehicle: saline with Tween-80) 110 % of control; (dose: 100.0 mg/kg/injection, schedule: Q01DX009 (ip), vehicle: saline with Tween-80) 95 % of control; (dose: 200.0 mg/kg/injection, schedule: Q01DX009 (ip), vehicle: saline with Tween-80) 90 % of control.

As for `O=S(=O)(Cc1ccccc1)C(Cl)(Cl)c1ccccc1`, the T/C is, setting by setting: (dose: 50.0 mg/kg/injection, schedule: Q04DX003 (ip), vehicle: saline with Tween-80) 100 % of control; (dose: 100.0 mg/kg/injection, schedule: Q04DX003 (ip), vehicle: saline with Tween-80) 104 % of control; (dose: 200.0 mg/kg/injection, schedule: Q04DX003 (ip), vehicle: saline with Tween-80) 109 % of control.

Turning to `CC(=O)O.[Cd]`, the T/C (dose: 5.0 mg/kg/injection, schedule: Q04DX003 (ip), vehicle: saline) was 95 % of control.

Take `COC1=C(OC)C(=O)C(C/C=C(\C)CC/C=C(\C)CC/C=C(\C)CC/C=C(\C)CC/C=C(\C)CC/C=C(\C)CC/C=C(\C)CC/C=C(\C)CCC=C(C)C)=C(C)C1=O`: the T/C by setting is: (dose: 5.0 mg/kg/injection, schedule: Q01DX025 (ip), vehicle: saline with Tween-80) 109 % of control; (dose: 10.0 mg/kg/injection, schedule: Q01DX025 (ip), vehicle: saline with Tween-80) 106 % of control; (dose: 20.0 mg/kg/injection, schedule: Q01DX025 (ip), vehicle: saline with Tween-80) 104 % of control; (dose: 40.0 mg/kg/injection, schedule: Q01DX025 (ip), vehicle: saline with Tween-80) 98 % of control.

In the case of `COc1cc2cc(c1Cl)NC(=O)/C=C/[C@]1(C)O[C@H]1[C@H](C)[C@@H]1C[C@@](O)(NC(=O)O1)[C@H](OC)C=C/C=C(\C)C2`, the T/C runs as follows: (dose: 0.2 micrograms/kg/injection, schedule: Q01DX009 (ip), vehicle: saline + alcohol) 100 % of control; (dose: 0.4 micrograms/kg/injection, schedule: Q01DX009 (ip), vehicle: saline + alcohol) 100 % of control; (dose: 0.8 micrograms/kg/injection, schedule: Q01DX009 (ip), vehicle: saline + alcohol) 90 % of control; (dose: 1.6 micrograms/kg/injection, schedule: Q01DX009 (ip), vehicle: saline + alcohol) 100 % of control; (dose: 3.1 micrograms/kg/injection, schedule: Q01DX009 (ip), vehicle: saline + alcohol) 115 % of control; (dose: 6.2 micrograms/kg/injection, schedule: Q01DX009 (ip), vehicle: saline + alcohol) 115 % of control. The T/C is 87 % of control and 110 % of control (dose: 12.5 micrograms/kg/injection, schedule: Q01DX009 (ip), vehicle: saline + alcohol); 87 % of control and 110 % of control (dose: 25.0 micrograms/kg/injection, schedule: Q01DX009 (ip), vehicle: saline + alcohol); 91 % of control and 110 % of control (dose: 50.0 micrograms/kg/injection, schedule: Q01DX009 (ip), vehicle: saline + alcohol); 91 % of control and 95 % of control (dose: 100.0 micrograms/kg/injection, schedule: Q01DX009 (ip), vehicle: saline + alcohol).
